Earlier results, collected in patent US20160279133A1 (Farmalider, S.A., priority 2015, published 2016).
Counter-ions that a name gives are not always drawn.

Key:
[1] = tested on: male sexual dysfunction; details: administered orally

solubility in water	Structure (SMILES)	efficacy in the treatment of male sexual dysfunction [1]
relatively insoluble	CCCc1nn(C)c2c(=O)[nH]c(-c3cc(S(=O)(=O)N4CCN(C)CC4)ccc3OCC)nc12 [Sildenafil citrate]	
	CCCc1nn(C)c2c(=O)[nH]c(-c3cc(S(=O)(=O)N4CCN(C)CC4)ccc3OCC)nc12 [Sildenafil, 5-[2-ethoxy-5-(4-methylpiperazin-1-yl-sulfonyl)phenyl]-1-methyl-3-n-propyl-1,6-dihydro-7H-pyrazolo[4,3-d]pyrimidin-7-one]	effective treatment
